For 20 compounds, IC50 results are on record in US20140135270A1, “MACROCYCLIC COMPOUNDS FOR INHIBITION OF INHIBITORS OF APOPTOSIS” (Ensemble Therapeutics Corp., priority 2012, published 2014).

In experiment [1] the target is T1, His-BIR3 (241-356, XIAP) (Homo sapiens, UniProt P98170).
T1 construct: additions of His-BIR3 (241-356, XIAP), fluorescein labeled SMAC peptide
The experiment in a line: XIAP-BIR3/SMAC Homogeneous Time Resolved Fluorescence (HTRF) Assay. The experiment is classed as binding. As to conditions: fluorescein labeled SMAC peptide. On the technique in general: In TR-FRET formats the signal depends on donor and acceptor labels being close together.

Experiment [2] has as its target T2, His-BIR2-3 (125-356, C202A/C213G, XIAP) (Homo sapiens, UniProt P98170, C202A/C213G).
T2 construct: additions of His-BIR2-3 (125-356, C202A/C213G, XIAP), fluorescein labeled dimeric SMAC peptide
The experiment in a line: XIAP-BIR2-3 Dimeric SMAC Peptide Homogeneous Time Resolved Fluorescence (HTRF) Assay. The experiment is classed as binding. Conditions: fluorescein labeled dimeric SMAC peptide.

T1 sequence (P98170 241-356): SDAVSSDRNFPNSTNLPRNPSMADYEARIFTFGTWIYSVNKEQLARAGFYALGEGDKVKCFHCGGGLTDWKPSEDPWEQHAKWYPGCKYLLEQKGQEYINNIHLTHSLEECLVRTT
T2 sequence (P98170 125-356 C202A/C213G): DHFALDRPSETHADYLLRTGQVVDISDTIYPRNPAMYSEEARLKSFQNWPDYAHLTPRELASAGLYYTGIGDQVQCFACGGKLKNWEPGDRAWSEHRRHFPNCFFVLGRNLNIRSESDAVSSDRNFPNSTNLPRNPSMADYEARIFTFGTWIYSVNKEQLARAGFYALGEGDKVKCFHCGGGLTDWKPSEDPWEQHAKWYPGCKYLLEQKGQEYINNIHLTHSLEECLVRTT

As a reminder, the IC50 is the concentration that gives 50% inhibition. The low end stands for greater potency in that assay, the high end for weaker potency in that assay. As to `CN[C@@H](C)C(=O)N[C@H](C(=O)N1C[C@@H]2C[C@H]1C(=O)N[C@@H](Cc1ccc3ccccc3c1)C(=O)NC(C(=O)O)Cc1ccc(cc1)OC/C=C/CO[C@H]1C[C@@H](C(=O)N[C@@H](Cc3ccc4ccccc4c3)C(=O)N[C@H](C(=O)O)Cc3ccc(cc3)O2)N(C(=O)[C@@H](NC(=O)[C@H](C)NC)C(C)(C)C)C1)C(C)(C)C` (stereo partly drawn) [Example 84], the figures for the IC50 in experiment [1] and in experiment [2] were 2.9 nM and 1.3 nM, respectively.

As for `CNC(C)C(=O)NC(C(=O)N1CC2CCCCOc3ccc(cc3)CC(C(=O)NS(=O)(=O)CCCNC(C)=O)NC(=O)C(Cc3ccc4ccccc4c3)NC(=O)C3CC(CN3C(=O)C(NC(=O)C(C)NC)C(C)(C)C)n3cc(nn3)COc3ccc(cc3)CC(C(=O)O)NC(=O)C(Cc3ccc4ccccc4c3)NC(=O)C1C2)C(C)(C)C` (stereo not drawn) [Example 27], the IC50 in experiment [1] is 3.5 nM; in experiment [2], 2.7 nM.

For `CN[C@@H](C)C(=O)N[C@H](C(=O)N1C[C@H]2CCCCOc3ccc(cc3)C[C@@H](C(=O)NS(=O)(=O)C3CC3)NC(=O)[C@H](Cc3ccc4ccccc4c3)NC(=O)[C@@H]3C[C@H](CCCCOc4ccc(cc4)C[C@@H](C(=O)O)NC(=O)[C@H](Cc4ccc5ccccc5c4)NC(=O)[C@@H]1C2)CN3C(=O)[C@@H](NC(=O)[C@H](C)NC)C(C)(C)C)C(C)(C)C` [Example 89], the values for the IC50 in experiment [1] and in experiment [2] were 5.9 nM and 3 nM, respectively.

With `CN[C@@H](C)C(=O)N[C@H](C(=O)N1C[C@@H]2C[C@H]1C(=O)N[C@@H](Cc1ccc3ccccc3c1)C(=O)N[C@H](C(=O)O)CCC(=O)N[C@H]1C[C@@H](C(=O)N[C@@H](Cc3ccc4ccccc4c3)C(=O)N[C@H](C(=O)O)Cc3ccc(cc3)OC/C=C/CO2)N(C(=O)[C@@H](NC(=O)[C@H](C)NC)C(C)(C)C)C1)C(C)C` [Example 56], the 50% inhibitory concentration (IC50) in experiment [1] worked out at 57.9 nM; in experiment [2], 5.9 nM.

The compound `CC[C@H](NC(=O)[C@H](C)NC)C(=O)N1C[C@@H]2C[C@H]1C(=O)N[C@@H](c1ccccc1)C(=O)N[C@H](C(=O)O)Cc1ccc(cc1)C(=O)N[C@H]1C[C@@H](C(=O)N[C@@H](Cc3ccc4ccccc4c3)C(=O)N[C@H](C(=O)O)Cc3ccc(cc3)OC/C=C/CO2)N(C(=O)[C@@H](NC(=O)[C@H](C)NC)C(C)(C)C)C1` [Example 54] registered an IC50 in experiment [1] of 60.3 nM.

Consider `CN[C@@H](C)C(=O)N[C@H](C(=O)N1C[C@@H]2C[C@H]1C(=O)N[C@@H](Cc1ccc3ccccc3c1)C(=O)N[C@H](C(=O)O)Cc1ccc(cc1)OC/C=C/CO[C@H]1C[C@@H](C(=O)N[C@@H](Cc3ccc4ccccc4c3)C(=O)N[C@H](C(=O)NS(=O)(=O)c3ccccn3)Cc3ccc(cc3)OCc3cn2nn3)N(C(=O)[C@@H](NC(=O)[C@H](C)NC)C(C)(C)C)C1)C(C)(C)C` [Example 118], for which the 50% inhibitory concentration (IC50) stood at 6.3 nM in experiment [1] and 1.8 nM in experiment [2].

As to `CN[C@@H](C)C(=O)N[C@H](C(=O)N1C[C@@H]2C[C@H]1C(=O)N[C@@H](Cc1ccc3ccccc3c1)C(=O)N[C@H](C(=O)O)Cc1ccc(cc1)CCCC[C@H]1C[C@@H](C(=O)N[C@@H](Cc3ccc4ccccc4c3)C(=O)N[C@H](C(=O)NS(=O)(=O)C3CC3)Cc3ccc(cc3)OCc3cn2nn3)N(C(=O)[C@@H](NC(=O)[C@H](C)NC)C(C)(C)C)C1)C(C)(C)C` [Example 119], the results for the IC50 in experiment [1] and in experiment [2] were 2.8 nM and 3.4 nM, respectively.

In the case of `CN[C@@H](C)C(=O)N[C@H](C(=O)N1C[C@@H]2C[C@H]1C(=O)N[C@@H](Cc1ccc3ccccc3c1)C(=O)N[C@H](C(=O)O)CCC(=O)N[C@H]1C[C@@H](C(=O)N[C@@H](Cc3ccc4ccccc4c3)C(=O)N[C@H](C(=O)O)Cc3ccc(cc3)OC/C=C/CO2)N(C(=O)[C@@H](NC(=O)[C@H](C)NC)C(C)(C)C)C1)[C@H](C)O` [Example 57], the figures for the half-maximal inhibitory concentration (IC50) in experiment [1] and in experiment [2] were 201 nM and 12.1 nM, respectively.

Turning to `CN[C@@H](C)C(=O)N[C@@H](Cc1c[nH]cn1)C(=O)N1C[C@@H]2C[C@H]1C(=O)N[C@@H](Cc1ccc3ccccc3c1)C(=O)N[C@H](C(=O)O)CCC(=O)N[C@H]1C[C@@H](C(=O)N[C@@H](Cc3ccc4ccccc4c3)C(=O)N[C@H](C(=O)O)Cc3ccc(cc3)OC/C=C/CO2)N(C(=O)[C@@H](NC(=O)[C@H](C)NC)C(C)(C)C)C1` [Example 59], the IC50 in experiment [1] was found to be 131 nM; in experiment [2], 24.3 nM.

For the compound `CC[C@H](NC(=O)[C@H](C)NC)C(=O)N1C[C@@H]2C[C@H]1C(=O)N[C@@H](Cc1ccc(-c3ccccc3)cc1)C(=O)N[C@H](C(=O)O)Cc1ccc(cc1)C(=O)N[C@H]1C[C@@H](C(=O)N[C@@H](Cc3ccc4ccccc4c3)C(=O)N[C@H](C(=O)O)Cc3ccc(cc3)OC/C=C/CO2)N(C(=O)[C@@H](NC(=O)[C@H](C)NC)C(C)(C)C)C1` [Example 49], the IC50 came to 16.1 nM in experiment [1] and 4.8 nM in experiment [2].

Regarding `CN[C@@H](C)C(=O)N[C@H](C(=O)N1C[C@@H]2C[C@H]1C(=O)N[C@@H](C)C(=O)N[C@H](C(=O)NS(=O)(=O)C1CC1)Cc1ccc(cc1)OCc1cn(nn1)[C@H]1C[C@@H](C(=O)N[C@@H](Cc3ccc4ccccc4c3)C(=O)N[C@H](C(=O)O)Cc3ccc(cc3)OC/C=C/CO2)N(C(=O)[C@@H](NC(=O)[C@H](C)NC)C(C)(C)C)C1)C(C)(C)C` [Example 103], the IC50 in experiment [1] is 67.2 nM; in experiment [2], 2.9 nM.

On to `CN[C@@H](C)C(=O)N[C@H](C(=O)N1C[C@@H]2C[C@H]1C(=O)N[C@@H](Cc1ccc3ccccc3c1)C(=O)N[C@H](C(=O)NS(=O)(=O)C1CC1)Cc1ccc(cc1)OCc1cn(nn1)[C@H]1C[C@@H](C(=O)N[C@@H](Cc3ccc4ccccc4c3)C(=O)N[C@H](C(=O)O)Cc3ccc(cc3)OC/C=C/CO2)N(C(=O)[C@@H](NC(=O)[C@H](C)NC)C(C)(C)C)C1)C1CCOCC1` [Example 109], for which the IC50 was found to be 44.3 nM in experiment [1] and 4.4 nM in experiment [2].

On to `CN[C@@H](C)C(=O)N[C@H](C(=O)N1C[C@H]2C/C=C/COc3ccc(cc3)C[C@@H](C(=O)O)NC(=O)[C@H]([C@H](C)c3ccc4ccccc4c3)NC(=O)[C@@H]3C[C@@H](CN3C(=O)[C@@H](NC(=O)[C@H](C)NC)C(C)(C)C)n3cc(nn3)COc3ccc(cc3)C[C@@H](C(=O)NS(=O)(=O)C3CC3)NC(=O)[C@H](Cc3ccc4ccccc4c3)NC(=O)[C@@H]1C2)C(C)(C)C` [Example 98], for which the figures for the IC50 in experiment [1] and in experiment [2] were 4.4 nM and 2.2 nM, respectively.

In the case of `CN[C@@H](C)C(=O)N[C@H](C(=O)N1C[C@@H]2C[C@H]1C(=O)N[C@@H](Cc1ccc3ccccc3c1)C(=O)N[C@H](C(=O)O)Cc1ccc(cc1)OC/C=C/CO[C@H]1C[C@@H](C(=O)N[C@@H](c3ccccc3)C(=O)N[C@H](C(=O)O)Cc3ccc(cc3)C(=O)N2)N(C(=O)[C@@H](NC(=O)[C@H](C)NC)C(C)(C)C)C1)C(C)(C)C` [Example 53], the half-inhibitory concentration (IC50) in experiment [1] was 47.4 nM; in experiment [2], 2.5 nM.

On to `CN[C@@H](C)C(=O)N[C@H](C(=O)N1CC[C@H]2OCc3cn(nn3)CC[C@@H](C(=O)OC)NC(=O)[C@H](Cc3ccc4ccccc4c3)NC(=O)[C@@H]3[C@@H](CCN3C(=O)[C@@H](NC(=O)[C@H](C)NC)C(C)(C)C)OC/C=C/COc3ccc(cc3)C[C@@H](C(=O)O)NC(=O)[C@H](Cc3ccc4ccccc4c3)NC(=O)[C@H]21)C(C)(C)C` [Example 17], for which the 50% inhibitory concentration (IC50) in experiment [1] and in experiment [2] was 1.8 nM each time.

For the compound `CN[C@@H](C)C(=O)N[C@H](C(=O)N1C[C@@H]2C[C@H]1C(=O)N[C@@H](Cc1ccc3ccccc3c1)C(=O)N[C@H](C(=O)O)Cc1ccc(cc1)OCCCCO[C@H]1C[C@@H](C(=O)N[C@@H](Cc3ccc4ccccc4c3)C(=O)N[C@H](C(=O)NS(=O)(=O)c3ccccn3)Cc3ccc(cc3)OCc3cn2nn3)N(C(=O)[C@@H](NC(=O)[C@H](C)NC)C(C)(C)C)C1)C(C)(C)C` [Example 125], the values for the IC50 in experiment [1] and in experiment [2] were 3.7 nM and 2.7 nM, respectively.

For the compound `CN[C@@H](C)C(=O)N[C@H](C(=O)N1C[C@@H]2C[C@H]1C(=O)N[C@@H](Cc1ccc3ccccc3c1)C(=O)N[C@H](C(=O)O)Cc1ccc(cc1)OC/C=C/CO[C@H]1C[C@@H](C(=O)N[C@@H](Cc3c[nH]c4ccccc34)C(=O)N[C@H](C(=O)O)Cc3ccc(cc3)C(=O)N2)N(C(=O)[C@@H](NC(=O)[C@H](C)NC)C(C)(C)C)C1)C(C)(C)C` [Example 46], the IC50 worked out at 24.2 nM in experiment [1] and 5.3 nM in experiment [2].

`CC[C@H](NC(=O)[C@H](C)NC)C(=O)N1C[C@@H]2C[C@H]1C(=O)N[C@@H](c1ccccc1)C(=O)N[C@H](C(=O)O)Cc1ccc(cc1)C(=O)N[C@H]1C[C@@H](C(=O)N[C@@H](Cc3ccc4ccccc4c3)C(=O)N[C@H](C(=O)O)Cc3ccc(cc3)OC/C=C/CO2)N(C(=O)[C@@H](NC(=O)[C@H](C)NC)C(C)(C)C)C1` [Example 52]: the IC50 in experiment [1] is 77.8 nM.

For the compound `CN[C@@H](C)C(=O)N[C@H](C(=O)N1C[C@@H]2C[C@H]1C(=O)N[C@@H](Cc1ccc3ccccc3c1)C(=O)N[C@H](C(=O)O)Cc1ccc(cc1)C(=O)N[C@H]1C[C@@H](C(=O)N[C@@H](Cc3ccc4ccccc4c3)C(=O)N[C@H](C(=O)O)Cc3ccc(cc3)OC/C=C/CO2)N(C(=O)[C@@H](NC(=O)[C@H](C)NC)C(C)(C)C)C1)C1CCNCC1` [Example 74], the IC50 in experiment [1] came out at 7.1 nM.

With `CN[C@@H](C)C(=O)N[C@H](C(=O)N1C[C@@H]2C[C@H]1C(=O)N[C@@H](Cc1ccc3ccccc3c1)C(=O)N[C@H](C(=O)O)Cc1ccc(cc1)C(=O)N[C@H]1C[C@@H](C(=O)N[C@@H](Cc3ccc4ccccc4c3)C(=O)N[C@H](C(=O)O)Cc3ccc(cc3)OC/C=C/CO2)N(C(=O)[C@@H](NC(=O)[C@H](C)NC)C(C)(C)C)C1)C1CCNCC1` [Example 67], in experiment [1], the IC50 amounted to 20 nM.
